Data on four compounds can be found in US20240262803A1, “COMPOUNDS, COMPOSITIONS AND METHODS OF TREATING DISORDERS” (Chungdu Anticancer Bioscience Ltd, priority 2021, published 2024).

Common to all, as to assay type: cell-based
For one test, the system named is SW480. Briefly: Minimal effective concentration that elicits polyploidy, SW480. Particulars: Homo sapiens, read-out: MECP: Minimal effective concentration that elicits polyploidy.
For test [1], the system named is lung cancer cell line NCI-H23. In words: MTT assay of cellular proliferation, NCI-H23. The note with it: Homo sapiens, read-out: EC50: Concentration that inhibits 50% of proliferation. The procedure, abridged:
(§1)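 DMEM/5% FBS, 37 °C, 5% CO2; seed, 15˜24 h to 20˜30% confluence; compound 1 nM–10 μM; MTT 3˜4 h at endpoint; solubilize, OD570; EC50 = 50% growth inhibition.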
For orientation: Tetrazolium dyes change colour on reduction, which living cells bring about.

Test [2] deals with liver cancer cell line T2 HCC. In words: Minimal effective concentration that elicits polyploidy, T2 HCC. Particulars: Mus musculus, read-out: MECP: Minimal effective concentration that elicits polyploidy.
Test [3] concerns gastric cancer cell line NCI-N87. In words: Minimal effective concentration that elicits polyploidy, NCI-N87. Particulars: Homo sapiens, read-out: MECP: Minimal effective concentration that elicits polyploidy.
Test [4] shares this test system. Briefly: MTT assay of cellular proliferation, NCI-N87. The note with it: Homo sapiens, read-out: EC50: Concentration that inhibits 50% of proliferation. The procedure, abridged:
as §1

The test system of test [5] is cervical cancer cell line Hela. In words: Minimal effective concentration that elicits polyploidy, Hela. Particulars: Homo sapiens, read-out: MECP: Minimal effective concentration that elicits polyploidy.
The subject of test [6] is RPEMYC^H2B-GFP cells. In words: Mechanism-informed phenotypic screening assay (mitotic arrest, polyploidy; GE IN-Cell Analyzer 2000). The note with it: 20 nM to 20 μM, 24, 48 or 72 hours, read-out: Mitotic Arrest (≥5%).
Test [7] deals with colon cancer cell line HCT116. In words: MTT assay of cellular proliferation, HCT116. The note with it: Homo sapiens, HCT-116, read-out: EC50: Concentration that inhibits 50% of proliferation. The method, boiled down: as §1
For test [8], the system named is lung cancer cell line NCI-H23. In words: Minimal effective concentration that elicits polyploidy, NCI-H23. Particulars: Homo sapiens, read-out: MECP: Minimal effective concentration that elicits polyploidy.
The subject of test [9] is colon cancer cell line SW460. Briefly: MTT assay of cellular proliferation, SW460. Particulars: Homo sapiens, SW480; read-out: EC50: Concentration that inhibits 50% of proliferation. The procedure, abridged:
as §1

In test [10] the test system is liver cancer cell line T2 HCC. Briefly: MTT assay of cellular proliferation, T2 HCC. The note with it: Mus musculus, read-out: EC50: Concentration that inhibits 50% of proliferation. The procedure, abridged: as §1
The subject of test [11] is breast cancer cell line MDA-MB-231. In words: MTT assay of cellular proliferation, MDA-MB-231. Particulars: Homo sapiens, read-out: EC50: Concentration that inhibits 50% of proliferation. The procedure, abridged: as §1
Test [12] relates to lung cancer cell line A549. In words: MTT assay of cellular proliferation, A549. Particulars: Homo sapiens, read-out: EC50: Concentration that inhibits 50% of proliferation. The method, boiled down:
as §1

For test [13], the system named is breast cancer cell line MDA-MB-231. Briefly: Minimal effective concentration that elicits polyploidy, MDA-MB-231. Particulars: Homo sapiens, read-out: MECP: Minimal effective concentration that elicits polyploidy.
For test [14], the system named is cervical cancer cell line Hela. Briefly: MTT assay of cellular proliferation, Hela. Particulars: Homo sapiens, read-out: EC50: Concentration that inhibits 50% of proliferation. The method, boiled down: as §1
Test [15] relates to lung cancer cell line A549. In words: Minimal effective concentration that elicits polyploidy, A549. Particulars: Homo sapiens, read-out: MECP: Minimal effective concentration that elicits polyploidy.
In test [16] the test system is RPEMYC^H2B-GFP cells. In words: Mechanism-informed phenotypic screening assay (mitotic arrest, polyploidy; GE IN-Cell Analyzer 2000). The note with it: 20 nM to 20 μM, 24, 48 or 72 hours, read-out: Min. Effective conc. for polyploidy (≥5%). The procedure, abridged: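 Cells expressing Histone 2B-EGFP (RPEMYC^H2B-GFP) were plated 18-24 h before exposure to compounds at 20 nM to 20 μM. At 24, 48 or 72 h, imaging scored mitotic arrest or change in DNA content. Value is the lowest concentration giving polyploid accumulation at 48 h.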

Test [17] relates to colon cancer cell line HCT116. In words: Minimal effective concentration that elicits polyploidy, HCT116. The note with it: Homo sapiens, HCT-116, read-out: MECP: Minimal effective concentration that elicits polyploidy.

Molecules are shown by their SMILES. Like-named read-outs stand apart in the source and are kept apart here.

Regarding `COc1cc(OC)cc(Oc2ncccc2-c2cc(C)ncn2)c1` [Compound 63, 4-(2-(3,5-dimethoxyphenoxy)pyridin-3-yl)-6-methylpyrimidine], the minimal effective concentration was 0.001 to 1 µM with SW480; 0.001 to 1 µM in test [2]; 0.001 to 1 µM in [3]; 0.001 to 1 µM in [5]; 1 µM with RPEMYC^H2B-GFP cells [6]; 0.001 to 1 µM in test [8]. Further, the minimal effective concentration in test [13] was 0.001 to 1 µM; in test [15], 0.001 to 1 µM; with RPEMYC^H2B-GFP cells [16] it was 1 µM; in [17], 0.001 to 1 µM. The EC50 in test [1], in [4], in test [7], in [9], in test [10] and in test [11] was 1 to 1000 nM in each case. Besides, the EC50 in test [12] and in test [14] was 1 to 1000 nM in each case.
Take `CNC(=O)c1cc(Oc2ncccc2-c2ccncc2)cc(OC(F)(F)F)c1` [Compound 7, 3-([3,4′-bipyridin]-2-yloxy)-N-methyl-5-(trifluoromethoxy)benzamide]: the minimal effective concentration in the test with SW480 is 0.001 to 1 µM; in [2] it was 0.001 to 1 µM; in [3], 0.001 to 1 µM; in test [5] it was 0.001 to 1 µM; with RPEMYC^H2B-GFP cells [6], 1 µM; in [8], 0.001 to 1 µM. For the same compound, the minimal effective concentration was 0.001 to 1 µM in test [13], 0.001 to 1 µM in [15], 1 µM in the test with RPEMYC^H2B-GFP cells [16] and 0.001 to 1 µM in test [17]. The EC50 in test [1], in test [4], in test [7], in test [9], in test [10] and in test [11] was 1 to 1000 nM in each case. Also, the EC50 in [12] and in test [14] was 1 to 1000 nM throughout.
Turning to `COc1cc(Oc2ncccc2-c2ccnc(N)n2)cc(-n2cccn2)c1` [Compound 26, 4-(2-(3-methoxy-5-(1H-pyrazol-1-yl)phenoxy)pyridin-3-yl)pyrimidin-2-amine], the minimal effective concentration is 0.001 to 1 µM in the test on SW480; 0.001 to 1 µM in test [2]; 0.001 to 1 µM in test [3]; 0.001 to 1 µM in test [5]; 1 µM in the test with RPEMYC^H2B-GFP cells [6]; 0.001 to 1 µM in test [8]. Moreover, the minimal effective concentration in [13] was 0.001 to 1 µM; in test [15], 0.001 to 1 µM; with RPEMYC^H2B-GFP cells [16], 1 µM; in test [17] it was 0.001 to 1 µM. Moreover, the EC50 in [1], in [4], in test [7], in test [9], in test [10] and in [11] was 1 to 1000 nM each time. In addition, the EC50 in test [12] and in test [14] was 1 to 1000 nM each time.
For `COc1cc(Oc2ncccc2-c2ccnc(C)c2)cc(-n2cccn2)c1` [Compound 41, 2-(3-methoxy-5-(1H-pyrazol-1-yl)phenoxy)-2′-methyl-3,4′-bipyridine], the minimal effective concentration in the test on SW480 is 0.001 to 1 µM; in test [2], 0.001 to 1 µM; in test [3], 0.001 to 1 µM; in [5], 0.001 to 1 µM; with RPEMYC^H2B-GFP cells [6] it was 1 µM; in [8] it was 0.001 to 1 µM. Also, the minimal effective concentration in test [13] was 0.001 to 1 µM; in [15], 0.001 to 1 µM; in the test on RPEMYC^H2B-GFP cells [16], 1 µM; in [17], 0.001 to 1 µM. Also, the EC50 in test [1], in test [4], in test [7], in [9], in test [10] and in test [11] was 1 to 1000 nM each time. Further, the EC50 in test [12] and in test [14] was 1 to 1000 nM each time.
